According to ChEMBL document CHEMBL1201862, “PubChem BioAssay data set” (2004):
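Five concentrations, 48 hours, 96-well plates. Abbreviation: GI50, concentration required for 50% inhibition of growth.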 Activity calls are given as the source filed them. No stated cut-off is given here; in the data, active = GI50 up to about 1.1 µM and inactive = higher.

Assays:
Assay in all cases: NCI tumour cell line growth inhibition, 48 h
SK-MEL-2 = test system: SK-MEL-2
HOP-18 = test system: HOP-18
LOX IMVI = test system: LOX IMVI
U-251 = test system: U-251
Malme-3M = test system: Malme-3M
RXF 393 = test system: RXF 393
UACC-257 = test system: UACC-257
IGROV-1 = test system: IGROV-1
SNB-78 = test system: SNB-78
OVCAR-4 = test system: OVCAR-4
SR = test system: SR
HOP-92 = test system: HOP-92
CAKI-1 = test system: CAKI-1
COLO 205 = test system: COLO 205
RXF 631 = test system: RXF 631
SK-MEL-28 = test system: SK-MEL-28
M14 = test system: M14
LXFL 529 = test system: LXFL 529
MCF7 = test system: MCF7
NCI/ADR-RES = test system: NCI/ADR-RES

Measured: GI50

Cc1c2ccccc2c(CO)c2cc(F)c3ccccc3c12
inactive: SK-MEL-2 18.5 µM | HOP-18 28.5 µM | LOX IMVI 17.1 µM | U-251 21.3 µM | Malme-3M 53.8 µM | RXF 393 24.7 µM | UACC-257 47.3 µM | IGROV-1 20.7 µM | SNB-78 24 µM | OVCAR-4 23.4 µM | SR 27 µM | HOP-92 32.4 µM | CAKI-1 25.4 µM | COLO 205 15.6 µM | RXF 631 16.7 µM | SK-MEL-28 44 µM

Cc1ccc(/N=N/C(C2=NC(=O)CS2)c2nc3ccccc3[nH]2)cc1 (stereo not drawn)
inactive: U-251 > 100 µM | Malme-3M > 100 µM | UACC-257 > 100 µM | IGROV-1 > 100 µM | M14 > 100 µM | OVCAR-4 > 100 µM | SR > 100 µM | HOP-92 > 100 µM | CAKI-1 > 100 µM | LXFL 529 > 100 µM | COLO 205 > 100 µM | SK-MEL-28 > 100 µM

CCCCCCNC(=O)C(C)C1CCC2(C)C=CC(=O)C(C)=C2C1O (stereo not drawn)
inactive: SK-MEL-2 > 100 µM | HOP-18 > 100 µM | LOX IMVI > 100 µM | MCF7 > 100 µM | NCI/ADR-RES > 100 µM | U-251 > 100 µM | RXF 393 > 100 µM | UACC-257 > 94.8 µM | IGROV-1 > 100 µM | SNB-78 > 100 µM | OVCAR-4 96.8 µM | HOP-92 45.2 µM | CAKI-1 > 100 µM | COLO 205 > 100 µM | SK-MEL-28 > 100 µM

COc1ccc(/C=C/C(=O)C(C)(C)C)cc1OC
inactive: U-251 > 100 µM | UACC-257 63.5 µM | IGROV-1 > 100 µM | M14 > 100 µM | SNB-78 38 µM | OVCAR-4 79.6 µM | CAKI-1 78 µM | LXFL 529 43.6 µM | COLO 205 > 100 µM | SK-MEL-28 74.6 µM
